Experiment: Phase 1 single agent studies in Japanese and Chinese participants (C4891016, C4891018): adverse events
[1] = TEAE treatment related, 200 mg, N = 15

Text: TEAE's from participants in both studies have been combined and are described below.

With O=C1CC[C@H](N2Cc3cc(N4CCN(CC5CCN(c6ccc([C@@H]7c8ccc(O)cc8CC[C@@H]7c7ccccc7)cc6)CC5)CC4)ccc3C2=O)C(=O)N1 [Compound A, (S)-3-(5-(4-((1-(4-((1R,2S)-6-hydroxy-2-phenyl-1,2,3,4-tetrahydronaphthalen-1-yl)phenyl)piperidin-4-yl)methyl)piperazin-1-yl)-1-oxoisoindolin-2-yl)piperidine-2,6-dione] the “Gastrointestinal disorders, Grade 3” value [1] was 0 n (%), the “Gastrointestinal disorders, Grade 4” value [1] was 0 n (%) and the “Gastrointestinal disorders, Grade 5” value [1] was 0 n (%). For the same compound, the “Gastrointestinal disorders, Missing or Unknown” value [1] was 0 n (%), the “Gastrointestinal disorders, Total” value [1] was 4 (26.7) n (%) and the “General disorders and administration site conditions, Grade 1” value [1] was 0 n (%). For the same compound, the “General disorders and administration site conditions, Grade 2” value [1] was 1 (6.7) n (%), the “General disorders and administration site conditions, Grade 3” value [1] was 0 n (%) and the “General disorders and administration site conditions, Grade 4” value [1] was 0) n (%). For the same compound, the “General disorders and administration site conditions, Grade 5” value [1] was 0 n (%), the “General disorders and administration site conditions, Missing or Unknown” value [1] was 0 n (%) and the “General disorders and administration site conditions, Total” value [1] was 1 (6.7) n (%). For the same compound, the “Headache, Grade 1” value [1] was 1 (6.7) n (%), the “Headache, Grade 2” value [1] was 0 n (%) and the “Headache, Grade 3” value [1] was 0 n (%). The “Headache, Grade 4” value [1] was 0 n (%), the “Headache, Grade 5” value [1] was 0 n (%) and the “Headache, Missing or Unknown” value [1] was 0 n (%). For the same compound, the “Headache, Total” value [1] was 1 (6.7) n (%), the “Hyperuricemia, Grade 1” value [1] was 2 (13.3) n (%) and the “Hyperuricemia, Grade 2” value [1] was 0 n (%). For the same compound, the “Hyperuricemia, Grade 3” value [1] was 0 n (%), the “Hyperuricemia, Grade 4” value [1] was 0 n (%) and the “Hyperuricemia, Grade 5” value [1] was 0 n (%). The “Hyperuricemia, Missing or Unknown” value [1] was 0 n (%), the “Hyperuricemia, Total” value [1] was 2 (13.3) n (%) and the “Hypokalemia, Grade 1” value [1] was 1 (6.7) n (%). The “Hypokalemia, Grade 2” value [1] was 0 n (%), the “Hypokalemia, Grade 3” value [1] was 0 n (%) and the “Hypokalemia, Grade 4” value [1] was 0 n (%). The “Hypokalemia, Grade 5” value [1] was 0 n (%), the “Hypokalemia, Missing or Unknown” value [1] was 0 n (%) and the “Hypokalemia, Total” value [1] was 1 (6.7) n (%). For the same compound, the “Hypophosphatasemia, Grade 1” value [1] was 1 (6.7) n (%), the “Hypophosphatasemia, Grade 2” value [1] was 0 n (%) and the “Hypophosphatasemia, Grade 3” value [1] was 0 n (%). For the same compound, the “Hypophosphatasemia, Grade 4” value [1] was 0 n (%), the “Hypophosphatasemia, Grade 5” value [1] was 0 n (%) and the “Hypophosphatasemia, Missing or Unknown” value [1] was 0 n (%). For the same compound, the “Hypophosphatasemia, Total” value [1] was 1 (6.7) n (%), the “Investigations, Grade 1” value [1] was 4 (26.7) n (%) and the “Investigations, Grade 2” value [1] was 1 (6.7) n (%). The “Investigations, Grade 3” value [1] was 2 (13.3) n (%), the “Investigations, Grade 4” value [1] was 0 n (%) and the “Investigations, Grade 5” value [1] was 0 n (%). The “Investigations, Missing or Unknown” value [1] was 0 n (%), the “Investigations, Total” value [1] was 7 (46.7) n (%) and the “Metabolism and nutrition disorders, Grade 1” value [1] was 3 (20.0) n (%). For the same compound, the “Metabolism and nutrition disorders, Grade 2” value [1] was 0 n (%), the “Metabolism and nutrition disorders, Grade 3” value [1] was 0 n (%) and the “Metabolism and nutrition disorders, Grade 4” value [1] was 0 n (%). For the same compound, the “Metabolism and nutrition disorders, Grade 5” value [1] was 0) n (%), the “Metabolism and nutrition disorders, Missing or Unknown” value [1] was 0 n (%) and the “Metabolism and nutrition disorders, Total” value [1] was 3 (20.0) n (%). For the same compound, the “Musculoskeletal and connective tissue disorders, Grade 1” value [1] was 1 (6.7) n (%), the “Musculoskeletal and connective tissue disorders, Grade 2” value [1] was 0) n (%) and the “Musculoskeletal and connective tissue disorders, Grade 3” value [1] was 0 n (%). The “Musculoskeletal and connective tissue disorders, Grade 4” value [1] was 0 n (%), the “Musculoskeletal and connective tissue disorders, Grade 5” value [1] was 0 n (%) and the “Musculoskeletal and connective tissue disorders, Missing or Unknown” value [1] was 0 n (%). For the same compound, the “Musculoskeletal and connective tissue disorders, Total” value [1] was 1 (6.7) n (%), the “Nausea, Grade 1” value [1] was 1 (6.7) n (%) and the “Nausea, Grade 2” value [1] was 0 n (%). For the same compound, the “Nausea, Grade 3” value [1] was 0 n (%), the “Nausea, Grade 4” value [1] was 0 n (%) and the “Nausea, Grade 5” value [1] was 0 n (%). For the same compound, the “Nausea, Missing or Unknown” value [1] was 0 n (%), the “Nausea, Total” value [1] was 1 (6.7) n (%) and the “Nervous system disorders, Grade 1” value [1] was 2 (13.3) n (%). The “Nervous system disorders, Grade 2” value [1] was 0 n (%), the “Nervous system disorders, Grade 3” value [1] was 0 n (%) and the “Nervous system disorders, Grade 4” value [1] was 0 n (%). The “Nervous system disorders, Grade 5” value [1] was 0 n (%), the “Nervous system disorders, Missing or Unknown” value [1] was 0 n (%) and the “Nervous system disorders, Total” value [1] was 2 (13.3) n (%). For the same compound, the “Neutrophil count decreased, Grade 1” value [1] was 1 (6.7) n (%), the “Neutrophil count decreased, Grade 2” value [1] was 0 n (%) and the “Neutrophil count decreased, Grade 3” value [1] was 1 (6.7) n (%). The “Neutrophil count decreased, Grade 4” value [1] was 0 n (%), the “Neutrophil count decreased, Grade 5” value [1] was 0 n (%) and the “Neutrophil count decreased, Missing or Unknown” value [1] was 0 n (%). The “Neutrophil count decreased, Total” value [1] was 2 (13.3) n (%), the “Pain, Grade 1” value [1] was 0 n (%) and the “Pain, Grade 2” value [1] was 1 (6.7) n (%). The “Pain, Grade 3” value [1] was 0 n (%), the “Pain, Grade 4” value [1] was 0 n (%) and the “Pain, Grade 5” value [1] was 0 n (%). The “Pain, Missing or Unknown” value [1] was 0 n (%), the “Pain, Total” value [1] was 1 (6.7) n (%) and the “Participants with events, Grade 1” value [1] was 7 (46.7) n (%). For the same compound, the “Participants with events, Grade 2” value [1] was 2 (13.3) n (%), the “Participants with events, Grade 3” value [1] was 2 (13.3) n (%) and the “Participants with events, Grade 4” value [1] was 0 n (%). The “Participants with events, Grade 5” value [1] was 0 n (%), the “Participants with events, Missing or Unknown” value [1] was 0 n (%) and the “Participants with events, Total” value [1] was 11 (73.3) n (%). For the same compound, the “Platelet count decreased, Grade 1” value [1] was 1 (6.7) n (%), the “Platelet count decreased, Grade 2” value [1] was 0 n (%) and the “Platelet count decreased, Grade 3” value [1] was 0 n (%). The “Platelet count decreased, Grade 4” value [1] was 0 n (%), the “Platelet count decreased, Grade 5” value [1] was 0) n (%) and the “Platelet count decreased, Missing or Unknown” value [1] was 0 n (%). For the same compound, the “Platelet count decreased, Total” value [1] was 1 (6.7) n (%), the “Pruritus, Grade 1” value [1] was 1 (6.7) n (%) and the “Pruritus, Grade 2” value [1] was 0 n (%). The “Pruritus, Grade 3” value [1] was 0 n (%), the “Pruritus, Grade 4” value [1] was 0) n (%) and the “Pruritus, Grade 5” value [1] was 0 n (%). The “Pruritus, Missing or Unknown” value [1] was 0 n (%), the “Pruritus, Total” value [1] was 1 (6.7) n (%) and the “Sinus bradycardia, Grade 1” value [1] was 1 (6.7) n (%). For the same compound, the “Sinus bradycardia, Grade 2” value [1] was 0 n (%), the “Sinus bradycardia, Grade 3” value [1] was 0 n (%) and the “Sinus bradycardia, Grade 4” value [1] was 0 n (%). The “Sinus bradycardia, Grade 5” value [1] was 0 n (%), the “Sinus bradycardia, Missing or Unknown” value [1] was 0 n (%) and the “Sinus bradycardia, Total” value [1] was 1 (6.7) n (%). The “Skin and subcutaneous tissue disorders, Grade 1” value [1] was 2 (13.3) n (%), the “Skin and subcutaneous tissue disorders, Grade 2” value [1] was 0 n (%) and the “Skin and subcutaneous tissue disorders, Grade 3” value [1] was 0 n (%). The “Skin and subcutaneous tissue disorders, Grade 4” value [1] was 0 n (%), the “Skin and subcutaneous tissue disorders, Grade 5” value [1] was 0 n (%) and the “Skin and subcutaneous tissue disorders, Missing or Unknown” value [1] was 0 n (%). For the same compound, the “Skin and subcutaneous tissue disorders, Total” value [1] was 2 (13.3) n (%), the “White blood cell count decreased, Grade 1” value [1] was 0 n (%) and the “White blood cell count decreased, Grade 2” value [1] was 0 n (%). For the same compound, the “White blood cell count decreased, Grade 3” value [1] was 1 (6.7) n (%), the “White blood cell count decreased, Grade 4” value [1] was 0 n (%) and the “White blood cell count decreased, Grade 5” value [1] was 0 n (%). For the same compound, the “White blood cell count decreased, Missing or Unknown” value [1] was 0 n (%), the “White blood cell count decreased, Total” value [1] was 1 (6.7) n (%) and the “discontinuations due to TEAE” value (in vivo) was “No discontinuations reported due to TEAE”.
